From patent US20160075653A1, “NEMATICIDAL N-(PHENYLCYCLOALKYL)CARBOXAMIDES AND N-(PHENYLCYCLOALKYL)THIOCARBOXAMIDES” (BAYER CROPSCIENCE AKTIENGESELLSCHAFT, priority 2013, published 2016)

Assay: Measurement of log P values by HPLC on reversed phase columns (methods [a] pH 2.3, [b] pH 2.7, [c] pH 7.8)
Format: physicochemical
Settings: HPLC on reversed phase column, method [b], pH 2.7
In short: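 Determined per EEC Directive 79/831 Annex V.A8 by reversed-phase HPLC, 10-95% acetonitrile gradient: [a] pH 2.3, 0.1% phosphoric acid; [b] LC-MS, pH 2.7, 0.1% formic acid; [c] LC-MS, pH 7.8, 0.001 molar ammonium hydrogen carbonate. Calibrated with C3-C16 alkan-2-ones by retention-time interpolation.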

Row | Structure (SMILES) | logP
1 | Cn1cc(C(=O)N[C@@H]2CC[C@H]2c2cccc(F)c2C(F)(F)F)c(C(F)F)n1 (relative stereo) [Example 644] | 2.99^[b]
2 | O=C(N[C@@H]1CC[C@@H]1c1cccc(F)c1C(F)(F)F)c1sccc1I (relative stereo) [Example 628] | 3.65^[b]
3 | O=C(NC1CCC1c1ccccc1C(F)(F)F)c1nccnc1C(F)(F)F (centres unmarked) [Example 687] | 3.31^[b]

Now from value to compound:

Row | logP | Structure (SMILES)
4 | 2.89^[b] | O=C(N[C@@H]1C[C@@H]1c1ccc(Cl)cc1Cl)c1cncnc1C(F)(F)F (relative stereo) [Example 610]
5 | 3.50^[b] | O=C(N[C@@H]1CC[C@@H]1c1cccc(F)c1C(F)(F)F)c1cccc(Cl)c1 (relative stereo) [Example 597]
6 | 4.10^[b] | O=C(N[C@@H]1CC[C@H]1c1ccc(Cl)cc1C(F)(F)F)c1ccccc1C(F)(F)F (relative stereo) [Example 703]
7 | 2.86^[b] | O=C(N[C@@H]1CC[C@H]1c1cccc(F)c1C(F)(F)F)c1cccnc1Cl (relative stereo) [Example 648]

Same assay, conditions: HPLC on reversed phase column, method [c], pH 7.8

Row | logP | Structure (SMILES)
8 | 2.87^[c]; | O=C(N[C@@H]1C[C@@H]1c1ccc(Cl)cc1Cl)c1cncnc1C(F)(F)F (relative stereo) [Example 610]
9 | 3.25^[c]; | O=C(NC1CCC1c1ccccc1C(F)(F)F)c1nccnc1C(F)(F)F (centres unmarked) [Example 687]

Same assay, conditions: HPLC on reversed phase columns, method [b], pH 2.7

Row | Structure (SMILES) | logP
10 | Cc1nn(C)c(Cl)c1C(=O)NC1CC1c1ccccc1 (centres unmarked) [Example 9] | 2.12^[b]
11 | O=C(NC1CCC1c1ccc(Cl)cc1C(F)(F)F)c1cccnc1C(F)(F)F (centres unmarked) [Example 721] | 3.36^[b]
12 | Cc1nn(C)cc1C(=O)NC1CC1c1ccc(Cl)cc1 (centres unmarked) [Example 19] | 2.63^[b]
13 | O=C(N[C@@H]1C[C@H]1c1ccccc1)c1c(Cl)cccc1Cl (relative stereo) [Example 47] | 2.99^[b]
14 | Cc1nc(C(F)(F)F)c(C(=O)NC2CC2c2ccc(F)cc2)s1 (centres unmarked) [Example 26] | 3.87^[b]
15 | O=C(N[C@@H]1CCC[C@@H]1c1ccc(F)c(F)c1)c1snc(Cl)c1Cl (relative stereo) [Example 121] | 4.19^[b]
16 | O=C(N[C@@H]1CCC[C@@H]1c1ccc(F)c(F)c1)c1sccc1Br (relative stereo) [Example 96] | 3.79^[b]
17 | O=C(NC1CC1c1ccc(F)cc1)c1cnc(Cl)cc1Cl (centres unmarked) [Example 36] | 2.70^[b]
18 | O=C(NC1CC1c1ccccc1)c1ccncc1 (centres unmarked) [Example 39] | 1.30^[b]

More lines, now with the values ahead:

Row | logP | Structure (SMILES)
19 | 3.30^[b] | O=C(NC1CCC1c1c(Cl)cccc1Cl)c1ccccc1 (centres unmarked) [Example 728]
20 | 3.50^[b] | O=C(N[C@@H]1CCC[C@@H]1c1ccc(F)c(F)c1)c1ccccc1C(F)(F)F (relative stereo) [Example 88]
21 | 3.75^[b] | CCc1ccccc1C(=O)N[C@@H]1CCC[C@@H]1c1ccc(F)c(F)c1 (relative stereo) [Example 114]
22 | 2.78^[b] | Cc1nocc1C(=O)N[C@@H]1CCC[C@H]1c1ccc(F)c(F)c1 (relative stereo) [Example 60]
23 | 2.80^[b] | O=C(N[C@@H]1CCC[C@H]1c1ccc(F)c(F)c1)c1cccnc1F (relative stereo) [Example 106]

Same assay, conditions: HPLC reversed phase, method [b] (pH 2.7)

Row | Structure (SMILES) | logP
24 | O=C(N[C@@H]1C[C@@H]1c1ccc(Cl)cc1Cl)c1ccccc1Cl (relative stereo) [Compound 580] | 3.27^[b]
25 | CN(C(=O)c1ccccc1C(F)(F)F)C1CCCC1c1ccc(C(F)(F)F)cc1 (centres unmarked) [Example 307] | 4.46^[b]
26 | O=C(NC1CCC1c1ccccc1C(F)(F)F)c1ccc(Cl)cc1 (centres unmarked) [Example 429] | 3.56^[b]
27 | O=C(NC1CCC1c1c(F)cccc1F)c1ccc(Cl)cc1Cl (centres unmarked) [Example 441] | 3.49^[b]
28 | Cn1cc(C(=O)NC2CCC2c2c(F)cccc2F)c(C(F)F)n1 (centres unmarked) [Example 486] | 2.42^[b]
29 | O=C(NC1CCC1c1ccc(F)cc1C(F)(F)F)c1ncc(C(F)(F)F)cc1Cl (centres unmarked) [Example 483] | 3.97^[b]
30 | O=C(NC1CCC1c1ccc(Cl)cc1Cl)c1ccc(Cl)cc1 (centres unmarked) [Example 452] | 4.33^[b]
31 | O=C(NC1CCC1c1ccc(Cl)cc1Cl)c1ccccc1Br (centres unmarked) [Example 471] | 3.92^[b]
32 | O=C(N[C@@H]1CC[C@H]1c1ccccc1C(F)(F)F)c1c(F)cccc1F (relative stereo) [Example 267] | 3.24^[b]
33 | O=C(N[C@@H]1CC[C@H]1c1ccc(F)cc1C(F)(F)F)c1ccc(Cl)cc1 (relative stereo) [Example 507] | 3.94^[b]
34 | O=C(NC1CCCCC1c1ccccc1Cl)c1ccccc1C(F)(F)F (centres unmarked) [Example 383] | 4.01^[b]
35 | O=C(N[C@@H]1C[C@@H]1c1ccc(Cl)cc1Cl)c1c(F)cccc1F (relative stereo) [Compound 581] | 3.44^[b]
36 | CC(C)Oc1ccc([C@H]2CCC[C@H]2NC(=O)c2cccnc2Cl)cc1 (relative stereo) [Example 326] | 3.06^[b]
37 | CC(C)Oc1ccc([C@H]2CCC[C@H]2NC(=O)c2nccnc2C(F)(F)F)cc1 (relative stereo) [Example 340] | 3.62^[b]
38 | O=C(N[C@@H]1CC[C@H]1c1ccc(F)cc1C(F)(F)F)c1c(F)cccc1F (relative stereo) [Example 492] | 3.38^[b]

More lines, now with the values ahead:

Row | logP | Structure (SMILES)
39 | 3.88^[b] | Cc1nc(C)c(C(=O)NC2CCCCC2c2ccc(Cl)cc2Cl)s1 (centres unmarked) [Example 410]
40 | 3.22^[b] | O=C(NC1CCCC1c1ccccc1C(F)(F)F)c1cccnc1C(F)(F)F (centres unmarked) [Example 309]
41 | 2.80^[b] | O=C(NC1CC1c1ccc(Cl)cc1)c1c(F)cc(F)cc1F (centres unmarked) [Example 466]
42 | 3.26^[b] | O=C(NC1CCC1c1c(F)cccc1F)c1cccc(Cl)c1 (centres unmarked) [Example 442]
43 | 2.64^[b] | O=C(N[C@@H]1C[C@@H]1c1ccc(Cl)cc1)c1c(F)cccc1F (relative stereo) [Example 268]
44 | 3.25^[b] | O=C(NC1CCCCC1c1ccccc1Br)c1cccnc1Cl (centres unmarked) [Example 413]
45 | 2.86^[b] | O=C(NC1CCCC1c1c(F)cccc1F)c1cccnc1C(F)(F)F (centres unmarked) [Example 362]

Same assay, conditions: HPLC reversed phase, method [c] pH 7.8

Row | Structure (SMILES) | logP
46 | CN(C(=O)c1ccccc1C(F)(F)F)C1CCCC1c1ccc(C(F)(F)F)cc1 (centres unmarked) [Example 307] | 4.40^[c];
47 | CC(C)Oc1ccc([C@H]2CCC[C@H]2NC(=O)c2cccnc2Cl)cc1 (relative stereo) [Example 326] | 2.99^[c];
48 | CC(C)Oc1ccc([C@H]2CCC[C@H]2NC(=O)c2nccnc2C(F)(F)F)cc1 (relative stereo) [Example 340] | 3.55^[c];

Other lines, results leading:

Row | logP | Structure (SMILES)
49 | 2.78^[c]; | O=C(NC1CC1c1ccc(Cl)cc1)c1c(F)cc(F)cc1F (centres unmarked) [Example 466]
50 | 2.59^[c]; | O=C(N[C@@H]1C[C@@H]1c1ccc(Cl)cc1)c1c(F)cccc1F (relative stereo) [Example 268]

Same assay, conditions: method [b], HPLC reversed phase, pH 2.7

Row | Structure (SMILES) | logP
51 | Cn1nc(C(F)F)c(C(=O)N(C2CC2)C2CCCCC2c2ccc(Cl)cc2Cl)c1F (centres unmarked) [Example 168] | 5.05^[b]
52 | Cn1nc(C(F)F)c(C(=O)N(C2CC2)C2CCCC2c2ccc(Cl)cc2Cl)c1F (centres unmarked) [Example 166] | 4.67^[b]
53 | Cn1cc(C(=O)N(C2CC2)C2CCCCC2c2ccccc2)c(C(F)(F)F)c1 (centres unmarked) [Example 140] | 3.90^[b]
54 | Cc1cc(C(=O)N[C@@H]2CCC[C@H]2c2ccc(F)c(F)c2)c(C)o1 (relative stereo) [Example 134] | 3.46^[b]

The remaining lines, values ahead:

Row | logP | Structure (SMILES)
55 | 2.61^[b] | Cn1nc(C(F)F)c(C(=O)NC2CC2c2ccc(Cl)cc2)c1F (centres unmarked) [Example 179]
56 | 3.14^[b] | O=C(NC1CC1c1ccccc1Cl)c1ccccc1I (centres unmarked) [Example 229]
57 | 3.58^[b] | O=C(N[C@@H]1CCC[C@H]1c1ccc(F)c(F)c1)c1ccsc1I (relative stereo) [Example 129]
58 | 4.59^[b] | Fc1ccc(C2CCCC2NC(=S)c2sccc2C(F)(F)F)cc1F (centres unmarked) [Example 149]

Same assay, conditions: reversed phase HPLC columns, HPLC-MS, method letter not given; read-out: log P

Row | chromatographic logP | Structure (SMILES)
59 | 3.06 | O=C(NC1CCC1c1ccccc1Cl)c1ncccc1Cl (stereo not drawn) [Compound 238, trans-3-chloro-N-[2-(2-chlorophenyl)cyclobutyl]pyridine-2-carboxamide]

Same assay, conditions: reversed phase HPLC columns, pH 2.7, HPLC on reversed phase columns, method [b] (pH 2.7); read-out: logP

Row | chromatographic logP | Structure (SMILES)
60 | 3.56 | O=C(N[C@@H]1CC[C@@H]1c1c(Cl)cccc1Cl)c1ccccc1Cl [Example 742]

Same assay, conditions: reversed phase HPLC columns, pH 2.7, HPLC reversed phase, method [b] (pH 2.7); read-out: logP

Row | chromatographic logP | Structure (SMILES)
61 | 4.4 | O=C(N[C@@H]1CC[C@H]1c1ccc(Cl)cc1Cl)c1cccc(Cl)c1 [Example 454]

Same assay, conditions: reversed phase HPLC columns, pH 2.7, method [b], HPLC reversed phase, pH 2.7; read-out: logP

Row | chromatographic logP | Structure (SMILES)
62 | 3.06 | O=C(NC1CCC1c1ccccc1Cl)c1ncccc1Cl (stereo not drawn) [Compound 238, trans-3-chloro-N-[2-(2-chlorophenyl)cyclobutyl]pyridine-2-carboxamide]
